# From patent US20210276977A1, “BICYCLIC INHIBITORS OF HISTONE DEACETYLASE” (Alkermes, Inc., priority 2018, published 2021)
# pIC50: −log10 of the molar value.
# Legend:
# Full length Human HDAC2 = biological target: T1, Full length Human HDAC2 (Homo sapiens, UniProt Q92769); test: HDAC2 enzymatic assay (deacetylation of FAM-labeled peptide substrate, microfluidic electrophoresis); format: biochemical; conditions: for pIC50: recombinant enzymatic assay
# T1 construct: Full length Human HDAC2; FLAG (C); host or cells: baculovirus expression system
# Protocol: (§1) HDAC2 and HDAC1 Enzymatic Assay (HDAC2 and HDAC1 IC50 Data)
# (§2) The following describes an assay protocol for measuring the deacetylation of a peptide substrate by HDAC2 or HDAC1.
# (§3) HD AC protein composition and respective substrate peptides are summarized below.
# (§4) HD AC reactions are assembled in 384 well plates (Greiner) in a total volume of 20 μL as following:
# (§5) HDAC proteins are pre-diluted in the assay buffer comprising: 100 mM HEPES, pH 7.5, 0.1% BSA, 0.01% Triton X-100, 25 mM KCl and dispensed into 384 well plate (10 uL per well).
# (§6) Test compounds are serially pre-diluted in DMSO and added to the protein samples by acoustic dispensing (Labcyte Echo). Concentration of DMSO is equalized to 1% in all samples.
# (§7) Control samples (0%-inhibition in the absence of inhibitor, DMSO only) and 100%-inhibition (in the absence of enzyme) are assembled in replicates of four and used to calculate the %-inhibition in the presence of compounds.
# (§8) At this step compounds can be pre-incubated with enzyme if desired.
# (§9) The reactions are initiated by addition of 10 uL of the FAM-labeled substrate peptide pre-diluted in the same assay buffer. Final concentration of substrate peptide is 1 uM (HDAC1-2).
# (§10) The reactions are allowed to proceed at room temperature. Following incubation, the reactions are quenched by addition of 50 μL of termination buffer (100 mM HEPES, pH7.5, 0.01% Triton X-100, 0.1% SDS). Terminated plates are analyzed on a microfluidic electrophoresis instrument (Caliper LabChip® 3000, Caliper Life Sciences/Perkin Elmer) which enables electrophoretic separation of de-acetylated product from acetylated substrate. A change in the relative intensity of the peptide substrate and product is the parameter measured. Activity in each test sample is determined as the product to sum ratio (PSR): P/(S+P), where P is the peak height of the product, and S is the peak height of the substrate. Percent inhibition (Pinh) is determined using the following equation: Pinh=(PSR0% inh−PSRcompound)/(PSR0% inh−PSR100% inh)*100, in which: PSRcompound is the product/sum ratio in the presence of compound, PSR0% inh is the product/sum ratio in the absence of compound and the PSR100% inh is the product/sum ratio in the absence of the enzyme. To determine IC50 of compounds (50%-inhibition) the %-inh data (Pinh versus compound concentration) are fit by a 4 parameter sigmoid dose-response model using XLfit software (IDBS).
# (§11) In the table, “A” indicates a IC50 value of less than 0.5 μM; “B” a IC50 value from 0.5 μM to 1.0 μM; “C” a IC50 value of greater than 1.0 μM and less than or equal to 2.0 μM; and “D” indicates an IC50 value of greater than 2.0 μM. NT=Not Tested.
# Full length Human HDAC1 = biological target: T2, Full length Human HDAC1 (Homo sapiens, UniProt Q13547); test: HDAC1 enzymatic assay (deacetylation of FAM-labeled peptide substrate, microfluidic electrophoresis); format: biochemical; conditions: for pIC50: recombinant enzymatic assay
# T2 construct: Full length Human HDAC1; His (C); FLAG (C); host or cells: baculovirus expression system
# Protocol: as §1, §2, §3, §4, §5, §6, §7, §8, §9, §10, §11
# HDAC2 = biological target: T3, HDAC2 (Homo sapiens, UniProt Q92769); test: HDAC2 Enzymatic Inhibition Assay in SH-SY5Y Cell Lysate with an Exogenous Substrate (HDAC-Glo 2); format: cell-based; conditions: for pIC50: SH-SY5Y cells
# T3 construct: host or cells: SH-SY5Y cells
# Protocol: HDAC2 Enzymatic Inhibition Assay in SH-SY5Y Cell Lysate with an Exogenous Substrate
# SH-SY5Y cells (Sigma) were cultured in Eagle's Modified Essential Medium supplemented with 10% fetal bovine serum and pen/strep. Twenty-four hours prior to compound dosing 20 uL of cells were plated in white 384 well plates at a density of 1,500 cells/well. Compounds were serially diluted in neat DMSO and then diluted 1:100 v/v into media without FBS and mixed. Media was removed from the plated cells and the diluted compounds in serum free media (1% v/v final DMSO) were added and incubated at 37° C. for five hours. Ten uL of HDAC-Glo 2 reagent with 0.1% Triton X-100 was then added, the plate was mixed and allowed to develop at room temperature for 100 minutes. Plates were then read with a Spectramax LMax luminometer employing a 0.4 s integration time. Dose response curves were constructed with normalized data where CI-994 at 100 uM was defined as 100% inhibition and DMSO alone as 0% inhibition.
# as §11
# [1] = five hours incubation, Table 3, class symbols
# [2] = versus matched Comparator with heteroaromatic ring directly linked to azetidine
# T2 sequence (Q13547 whole entry): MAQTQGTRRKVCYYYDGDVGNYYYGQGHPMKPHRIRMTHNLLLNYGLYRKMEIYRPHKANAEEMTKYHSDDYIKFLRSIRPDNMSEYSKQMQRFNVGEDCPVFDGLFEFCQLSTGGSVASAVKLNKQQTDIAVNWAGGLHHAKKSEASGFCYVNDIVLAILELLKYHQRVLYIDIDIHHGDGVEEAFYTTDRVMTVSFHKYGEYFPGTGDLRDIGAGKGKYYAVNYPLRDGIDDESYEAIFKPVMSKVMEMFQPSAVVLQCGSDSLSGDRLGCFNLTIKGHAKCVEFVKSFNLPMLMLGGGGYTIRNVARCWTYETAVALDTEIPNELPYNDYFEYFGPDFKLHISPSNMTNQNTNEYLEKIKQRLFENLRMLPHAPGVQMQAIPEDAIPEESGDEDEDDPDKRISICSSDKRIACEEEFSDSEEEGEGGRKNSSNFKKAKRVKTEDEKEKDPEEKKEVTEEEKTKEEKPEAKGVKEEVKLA
# T1 sequence (Q92769 whole entry): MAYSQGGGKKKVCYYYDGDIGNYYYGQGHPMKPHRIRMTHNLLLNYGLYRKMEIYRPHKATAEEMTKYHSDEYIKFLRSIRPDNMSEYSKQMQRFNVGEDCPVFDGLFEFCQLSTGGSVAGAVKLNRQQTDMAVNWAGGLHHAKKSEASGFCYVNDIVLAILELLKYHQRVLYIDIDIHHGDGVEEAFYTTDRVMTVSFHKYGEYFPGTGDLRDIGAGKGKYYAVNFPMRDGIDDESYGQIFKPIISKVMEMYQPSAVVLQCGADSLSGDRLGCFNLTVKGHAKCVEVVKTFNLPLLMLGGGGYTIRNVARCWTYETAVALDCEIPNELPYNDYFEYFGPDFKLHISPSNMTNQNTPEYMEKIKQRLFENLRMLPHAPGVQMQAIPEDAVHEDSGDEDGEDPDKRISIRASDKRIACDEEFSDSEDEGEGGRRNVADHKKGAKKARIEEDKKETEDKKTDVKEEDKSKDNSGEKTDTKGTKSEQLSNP
# T3 sequence (Q92769 whole entry): as above
"pIC50 (Full length Human HDAC2; Table 2, class symbols)","pIC50 (Full length Human HDAC1; Table 2, class symbols)",pIC50 (HDAC2; [1]),"pIC50 (Full length Human HDAC2; Table 4, numeric)","pIC50 (Full length Human HDAC1; Table 4, numeric)","pIC50 (HDAC2; Table 4, numeric)",fold more potent in the HDAC2 recombinant enzymatic assay than the corresponding comparator without spacer X (Full length Human HDAC2; [2]) [fold],fold more potent in the HDAC1 recombinant enzymatic assay than the corresponding comparator without spacer X (Full length Human HDAC1; [2]) [fold],fold more potent in the SH-SY5Y cell assay than the corresponding comparator without spacer X (HDAC2; [2]) [fold],Compound
6.00 to 6.30,6.00 to 6.30,< 5.70,–,–,–,–,–,–,Nc1ccc(-c2ccc(F)cc2F)nc1NC(=O)N1CC(C(F)(F)c2ncc(F)cn2)C1 [Compound 34]
> 6.30,> 6.30,6.00 to 6.30,–,–,–,–,–,–,Nc1ccc(-c2ccc(F)cc2)nc1NC(=O)N1CC(Cc2ncc(F)cn2)C1 [Compound 27]
5.70 to 6.00,6.00 to 6.30,6.00 to 6.30,–,–,–,–,–,–,Cc1nnc(CC2CN(C(=O)Nc3nc(-c4ccc(F)cc4F)ccc3N)C2)s1 [Compound 45]
< 5.70,< 5.70,5.70 to 6.00,–,–,–,–,–,–,Cc1cnc(CC2CN(C(=O)Nc3nc(-c4ccc(F)cc4F)ccc3N)C2)nc1 [Compound 7]
5.70 to 6.00,6.00 to 6.30,5.70 to 6.00,–,–,–,–,–,–,Nc1ccc(-c2ccc(F)cc2F)nc1NC(=O)N1CC(Cc2cccnc2)C1 [Compound 3]
< 5.70,< 5.70,5.70 to 6.00,–,–,–,–,–,–,Nc1ccc(-c2ccc(F)cc2F)nc1NC(=O)N1CC(Cc2ccncc2)C1 [Compound 4]
6.00 to 6.30,> 6.30,6.00 to 6.30,6.23,6.39,6.16,–,–,–,Cc1cnc(CC2CN(C(=O)Nc3nc(-c4ccc(F)cc4F)ccc3N)C2)cn1 [Compound 14]
–,–,–,4.87,4.86,5.01,–,–,–,"Cc1cnc(C2CN(C(=O)Nc3nc(-c4ccc(F)cc4F)ccc3N)C2)cn1 [Comparator C, reference compound]"
< 5.70,< 5.70,5.70 to 6.00,5.55,5.65,5.81,–,–,–,Cc1ncc(CC2CN(C(=O)Nc3nc(-c4ccc(F)cc4F)ccc3N)C2)cn1 [Compound 6]
< 5.70,< 5.70,< 5.70,–,–,–,–,–,–,Cc1nccc(CC2CN(C(=O)Nc3nc(-c4ccc(F)cc4F)ccc3N)C2)n1 [Compound 15]
6.00 to 6.30,> 6.30,5.70 to 6.00,–,–,–,–,–,–,Nc1ccc(-c2ccc(F)cc2F)nc1NC(=O)N1CC(Cc2ccccn2)C1 [Compound 2]
6.00 to 6.30,> 6.30,> 6.30,6.15,6.34,6.30,> 7,10,100,Nc1ccc(-c2ccc(F)cc2F)nc1NC(=O)N1CC(Cc2ncccn2)C1 [Compound 1]
–,–,–,< 4.52,< 4.52,4.52,–,–,–,"Cc1ncc(C2CN(C(=O)Nc3nc(-c4ccc(F)cc4F)ccc3N)C2)cn1 [Comparator B, reference compound]"
6.00 to 6.30,> 6.30,6.00 to 6.30,–,–,–,–,–,–,Nc1ccc(-c2ccc(F)cc2F)nc1NC(=O)N1CC(Cc2ncc(F)cn2)C1 [Compound 21]
6.00 to 6.30,6.00 to 6.30,6.00 to 6.30,–,–,–,–,–,–,Cc1ccnc(CC2CN(C(=O)Nc3nc(-c4ccc(F)cc4F)ccc3N)C2)n1 [Compound 11]
5.70 to 6.00,6.00 to 6.30,6.00 to 6.30,–,–,–,–,–,–,Cc1nccnc1CC1CN(C(=O)Nc2nc(-c3ccc(F)cc3F)ccc2N)C1 [Compound 16]
6.00 to 6.30,6.00 to 6.30,5.70 to 6.00,–,–,–,–,–,–,Nc1ccc(-c2ccc(F)cc2F)nc1NC(=O)N1CC(Cc2cnccn2)C1 [Compound 12]

# The remaining lines, values behind:
Compound,"pIC50 (Full length Human HDAC2; Table 2, class symbols)","pIC50 (Full length Human HDAC1; Table 2, class symbols)",pIC50 (HDAC2; [1]),"pIC50 (Full length Human HDAC2; Table 4, numeric)","pIC50 (Full length Human HDAC1; Table 4, numeric)","pIC50 (HDAC2; Table 4, numeric)",fold more potent in the HDAC2 recombinant enzymatic assay than the corresponding comparator without spacer X (Full length Human HDAC2; [2]) [fold],fold more potent in the HDAC1 recombinant enzymatic assay than the corresponding comparator without spacer X (Full length Human HDAC1; [2]) [fold],fold more potent in the SH-SY5Y cell assay than the corresponding comparator without spacer X (HDAC2; [2]) [fold]
Nc1ccc(-c2ccc(F)cc2)nc1NC(=O)N1CC(Cn2cccn2)C1 [Compound 73],5.70 to 6.00,6.00 to 6.30,5.70 to 6.00,–,–,–,–,–,–
Nc1ccc(-c2ccc(F)cc2F)nc1NC(=O)N1CC(CCc2ccccn2)C1 [Compound 43],< 5.70,6.00 to 6.30,< 5.70,–,–,–,–,–,–
COCc1ccc(CC2CN(C(=O)Nc3nc(-c4ccc(F)cc4F)ccc3N)C2)cn1 [Compound 9],< 5.70,5.70 to 6.00,< 5.70,–,–,–,–,–,–
Nc1ccc(-c2ccc(F)cc2)nc1NC(=O)N1CC(Cc2cnc(C(F)(F)F)nc2)C1 [Compound 78],< 5.70,< 5.70,< 5.70,–,–,–,–,–,–
Nc1ccc(-c2ccccc2F)nc1NC(=O)N1CC(C(F)(F)c2ncccn2)C1 [Compound 35],6.00 to 6.30,5.70 to 6.00,6.00 to 6.30,–,–,–,–,–,–
COC1(Cc2nccn2C)CN(C(=O)Nc2nc(-c3ccc(F)cc3)ccc2N)C1 [Compound 87],< 5.70,< 5.70,5.70 to 6.00,–,–,–,–,–,–
Nc1ccc(-c2ccc(F)cc2F)nc1NC(=O)N1CC(Cn2cccn2)C1 [Compound 30],5.70 to 6.00,5.70 to 6.00,5.70 to 6.00,–,–,–,–,–,–
Cc1ncc(CC2CN(C(=O)Nc3nc(-c4ccc(F)cc4)ccc3N)C2)cn1 [Compound 80],5.70 to 6.00,6.00 to 6.30,5.70 to 6.00,–,–,–,–,–,–
CC(F)(F)c1cnc(CC2CN(C(=O)Nc3nc(-c4ccc(F)cc4)ccc3N)C2)nc1 [Compound 81],6.00 to 6.30,> 6.30,< 5.70,–,–,–,–,–,–
"Nc1ccc(-c2ccc(F)cc2F)nc1NC(=O)N1CC(c2ncccn2)C1 [Comparator A, reference compound]",–,–,–,5.28,5.34,< 4.28,–,–,–
COCc1cnc(CC2CN(C(=O)Nc3nc(-c4ccc(F)cc4)ccc3N)C2)nc1 [Compound 82],6.00 to 6.30,> 6.30,5.70 to 6.00,–,–,–,–,–,–
Nc1ccc(-c2cccs2)nc1NC(=O)N1CC(Cc2ncccn2)C1 [Compound 68],5.70 to 6.00,> 6.30,6.00 to 6.30,–,–,–,–,–,–
Cc1cnc(CC2CN(C(=O)Nc3nc(-c4ccc(F)cc4)ccc3N)C2)nc1 [Compound 65],6.00 to 6.30,> 6.30,6.00 to 6.30,–,–,–,–,–,–
Cc1ccnc(CC2CN(C(=O)Nc3nc(-c4ccc(F)cc4)ccc3N)C2)n1 [Compound 72],6.00 to 6.30,> 6.30,5.70 to 6.00,–,–,–,–,–,–
CC(c1ncccn1)C1CN(C(=O)Nc2nc(-c3ccc(F)cc3)ccc2N)C1 (stereo not drawn) [Compound 57],6.00 to 6.30,> 6.30,5.70 to 6.00,–,–,–,–,–,–
Nc1ccc(-c2ccccc2F)nc1NC(=O)N1CC(C(F)(F)c2ncc(F)cn2)C1 [Compound 37],6.00 to 6.30,6.00 to 6.30,6.00 to 6.30,–,–,–,–,–,–
Cn1ccnc1CC1CN(C(=O)Nc2nc(-c3ccc(F)cc3)ccc2N)C1 [Compound 71],< 5.70,6.00 to 6.30,6.00 to 6.30,–,–,–,–,–,–
Nc1ccc(-c2ccc(F)cc2)nc1NC(=O)N1CC(Cc2ccc(F)cn2)C1 [Compound 77],5.70 to 6.00,> 6.30,< 5.70,–,–,–,–,–,–
Nc1ccc(-c2ccc(F)cc2)nc1NC(=O)N1CC(C(F)(F)c2ncccn2)C1 [Compound 36],> 6.30,> 6.30,5.70 to 6.00,–,–,–,–,–,–
Nc1ccc(-c2ccc(F)cc2F)nc1NC(=O)N1CC(Cn2ccnc2)C1 [Compound 31],< 5.70,< 5.70,< 5.70,–,–,–,–,–,–
Nc1ccc(-c2ccc(F)s2)nc1NC(=O)N1CC(Cc2ncccn2)C1 [Compound 66],6.00 to 6.30,> 6.30,5.70 to 6.00,–,–,–,–,–,–
CC(c1ncccn1)C1CN(C(=O)Nc2nc(-c3ccc(F)cc3F)ccc2N)C1 (stereo not drawn) [Compound 42],5.70 to 6.00,6.00 to 6.30,> 6.30,–,–,–,–,–,–
